Experiments:
Assay type in all cases: toxicity, cell-based
U2OS = experiment: Incucyte cell viability with U2OS; details: human, 10 µM, compound concentration 10 uM
HEK-293T = experiment: Incucyte cell viability with HEK293T; details: human, 10 µM, compound concentration 10 uM
Fibroblast = experiment: Incucyte cell viability with human fibroblast; details: 10 µM, compound concentration 10 uM
[1] = 0 h, replicate number 1, timepoint 0 hours
[2] = 6 h, replicate number 1, timepoint 6 hours
[3] = 12 h, replicate number 1, timepoint 12 hours
[4] = 12 h, replicate number 2, timepoint 12 hours
[5] = 18 h, replicate number 1, timepoint 18 hours
[6] = 18 h, replicate number 2, timepoint 18 hours
[7] = 24 h, replicate number 1, timepoint 24 hours
[8] = 24 h, replicate number 2, timepoint 24 hours
[9] = 0 h, replicate number 2, timepoint 0 hours
[10] = 6 h, replicate number 2, timepoint 6 hours
Also: filed as whole numbers so only -1 and 0 and 1 occur.

SMILES	Growth Rate (U2OS; [1])	Growth Rate (U2OS; [3])	Growth Rate (U2OS; [4])	Growth Rate (U2OS; [5])	Growth Rate (U2OS; [7])	Growth Rate (U2OS; [8])	Growth Rate (HEK-293T; [1])	Growth Rate (HEK-293T; [9])	Growth Rate (HEK-293T; [2])	Growth Rate (HEK-293T; [10])	Growth Rate (HEK-293T; [3])	Growth Rate (HEK-293T; [5])	Growth Rate (HEK-293T; [7])	Growth Rate (Fibroblast; [1])	Growth Rate (Fibroblast; [2])	Growth Rate (Fibroblast; [3])	Growth Rate (Fibroblast; [5])	Growth Rate (Fibroblast; [7])	Growth Rate (U2OS; [10])	Growth Rate (Fibroblast; [8])	also measured
CCCCc1nc2ccc(NC(=O)NC3CCCCC3)cc2n1Cc1ccc(-c2ccccc2C(=O)O)cc1	0	0	1	0	0	1	1	0	0	1	0	0	0	0	1	0	1	1	–	–	Growth Rate (U2OS; [2]): 0; Growth Rate (U2OS; [6]): 1; Growth Rate (HEK-293T; [4]): 1; Growth Rate (HEK-293T; [6]): 1
CN(CCOc1ccc(C[C@H](Nc2ccccc2C(=O)c2ccccc2)C(=O)O)cc1)c1ccccn1.O	0	0	–	0	1	0	1	0	0	1	1	1	1	0	1	–	–	1	0	0	Growth Rate (HEK-293T; [8]): 0; Growth Rate (Fibroblast; [10]): 0; Growth Rate (Fibroblast; [4]): 0; Growth Rate (Fibroblast; [6]): 0
CCOC(=O)c1cc(C#N)c(N2CCC(C(=O)NS(=O)(=O)Cc3ccccc3)CC2)nc1C	–	0	1	0	0	1	1	0	0	1	0	0	0	0	0	0	0	1	0	0	Growth Rate (U2OS; [9]): 1; Growth Rate (U2OS; [2]): 1; Growth Rate (U2OS; [6]): 1; Growth Rate (HEK-293T; [8]): 1
C=CCN1C[C@H](C)N([C@H](c2ccc(C(=O)N(CC)CC)cc2)c2cccc(O)c2)C[C@H]1C	0	–	1	1	1	–	1	0	0	–	0	0	0	0	0	0	0	1	1	0	–
Cc1nc(C#Cc2ccnc(Cl)c2)c(C)n1-c1ccc(OC(F)(F)F)cc1	0	1	–	1	1	–	0	–	0	–	0	0	0	1	1	0	1	1	–	0	Growth Rate (Fibroblast; [9]): 0; Growth Rate (Fibroblast; [10]): 0; Growth Rate (Fibroblast; [6]): 0
Cc1cc(SCc2sc(-c3ccc(C(F)(F)F)c(F)c3)nc2C)ccc1OCC(=O)O	0	1	–	1	1	–	0	–	1	–	1	0	0	0	1	1	1	1	1	0	Growth Rate (HEK-293T; [4]): 0; Growth Rate (Fibroblast; [4]): 0
O=C(O)CC1CCC2(CC1)CCN(c1cc(OC(F)(F)F)ccc1Cl)CC2	1	1	–	1	1	–	0	–	1	–	0	0	0	0	1	–	1	1	1	–	Growth Rate (U2OS; [9]): 0; Growth Rate (HEK-293T; [4]): 1; Growth Rate (HEK-293T; [6]): 1; Growth Rate (HEK-293T; [8]): 1

Reference: ChEMBL document CHEMBL4689842, “EUbOPEN Chemogenomics Library wave 1” (2021)
